Here are results for 20 compounds from patent publication US9440969B2, “Compounds and methods for kinase modulation, and indications therefor” (PLEXXIKON INC., priority 2009, dated 2016).

The target of experiment [1] is c-Raf-1 (Homo sapiens, UniProt P04049). The experiment is described as follows: c-Raf-1 kinase activity assay (AlphaScreen, biotin-MEK1 substrate). To be noted: 100 μM ATP, 100 nM biotin-MEK1, 45 minutes at room temperature; read-out: Biochemical activity (IC50 μM) c-Raf-1. In outline: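 Each Raf enzyme (0.1 ng) phosphorylates 100 nM biotin-MEK1 in pH 7.0 HEPES with Mg2+/Mn2+, 100 μM ATP final, 45 min at room temperature. Phospho-MEK1/2 antibody with AlphaScreen beads is read after 3 h. IC50 comes from an 8-point dilution series.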
Sequence of c-Raf-1 (P04049 whole entry Y340D/Y341D, form open): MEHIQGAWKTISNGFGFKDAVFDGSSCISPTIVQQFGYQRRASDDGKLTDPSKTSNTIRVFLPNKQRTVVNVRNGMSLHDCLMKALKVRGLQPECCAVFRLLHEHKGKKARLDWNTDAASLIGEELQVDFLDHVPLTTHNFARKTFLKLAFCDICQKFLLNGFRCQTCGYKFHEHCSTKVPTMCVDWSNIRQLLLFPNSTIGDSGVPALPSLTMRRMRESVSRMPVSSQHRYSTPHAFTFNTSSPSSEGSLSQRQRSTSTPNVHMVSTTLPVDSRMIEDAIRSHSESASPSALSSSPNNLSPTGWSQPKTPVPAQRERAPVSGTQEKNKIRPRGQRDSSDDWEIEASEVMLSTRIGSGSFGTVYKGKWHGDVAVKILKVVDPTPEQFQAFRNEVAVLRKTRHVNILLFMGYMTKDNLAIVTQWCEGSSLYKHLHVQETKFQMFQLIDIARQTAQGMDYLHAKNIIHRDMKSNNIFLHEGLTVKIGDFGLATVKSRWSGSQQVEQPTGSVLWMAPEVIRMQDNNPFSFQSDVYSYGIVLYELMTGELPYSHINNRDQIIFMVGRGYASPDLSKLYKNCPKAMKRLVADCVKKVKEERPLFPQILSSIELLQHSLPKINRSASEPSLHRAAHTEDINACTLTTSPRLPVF
On the technique in general: In Alpha technology, singlet oxygen from a donor bead excites a nearby acceptor bead.

Experiment [2] deals with COLO205 colon adenocarcinoma (B-Raf V600E mutation). Put plainly: COLO205 cell growth inhibition (ATPlite luminescence). It is filed as cell-based. Particulars: Homo sapiens, COLO 205, 72 h, COLO205 cells, incubated 3 days with compound. The gist of the method: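 Cells seeded at 6×10^4 cells/mL in line-specific medium with 10% FBS, held overnight at 37°C, then given an 8-point 1:3 compound titration (top 10 μM final) for 3 days at 37°C, 5% CO2. ATP content read by ATPlite luminescence as a cell-number proxy; IC50 fitted from luminescence versus concentration.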
A general note: ATP-based viability assays read luminescence as a measure of living cells.

The IC50 is the concentration needed to halve the response being measured.

Turning to `CCCS(=O)(=O)Nc1ccc(F)c(C(=O)c2c[nH]c3ncc(-c4ccc5[nH]ncc5c4)cc23)c1F` [P-0001, propane-1-sulfonic acid {2,4-difluoro-3-[5-(1H-indazol-5-yl)-1H-pyrrolo[2,3-b]pyridine-3-carbonyl]-phenyl}-amide], the results for the IC50 in experiment [1] and in experiment [2] were under 0.1 µM and under 1 µM, respectively.

Turning to `O=C(c1c(F)ccc(NS(=O)(=O)c2cc(F)ccc2F)c1F)c1c[nH]c2ncc(-c3ccc4[nH]ncc4c3)cc12` [P-0002, N-{2,4-Difluoro-3-[5-(1H-indazol-5-yl)-1H-pyrrolo[2,3-b]pyridine-3-carbonyl]-phenyl}-2,5-difluoro-benzenesulfonamide], the IC50 was under 0.1 µM in experiment [1] and under 1 µM in experiment [2].

Regarding `CNC(=O)n1ncc2cc(-c3cnc4[nH]cc(C(=O)c5c(F)ccc(NS(=O)(=O)c6cc(F)ccc6F)c5F)c4c3)ccc21` [P-0003, 5-{3-[3-(2,5-Difluoro-benzenesulfonylamino)-2,6-difluoro-benzoyl]-1H-pyrrolo[2,3-b]pyridin-5-yl}-indazole-1-carboxylic acid methylamide], the IC50 in experiment [1] was under 0.1 µM; in experiment [2] it was under 1 µM.

As for `CC(=O)n1cc(C(=O)c2c(F)ccc(NS(=O)(=O)c3cc(F)ccc3F)c2F)c2cc(-c3ccc4c(cnn4C(C)=O)c3)cnc21` [P-0004, N-{3-[1-Acetyl-5-(1-acetyl-1H-indazol-5-yl)-1H-pyrrolo[2,3-b]pyridine-3-carbonyl]-2,4-difluoro-phenyl}-2,5-difluoro-benzenesulfonamide], the figures for the IC50 in experiment [1] and in experiment [2] were under 0.1 µM and under 1 µM, respectively.

Turning to `CC(=O)n1ncc2cc(-c3cnc4[nH]cc(C(=O)c5c(F)ccc(NS(=O)(=O)c6cc(F)ccc6F)c5F)c4c3)ccc21` [P-0005, N-{3-[5-(1-Acetyl-1H-indazol-5-yl)-1H-pyrrolo[2,3-b]pyridine-3-carbonyl]-2,4-difluoro-phenyl}-2,5-difluoro-benzenesulfonamide], the IC50 in experiment [1] is under 0.1 µM; in experiment [2], under 1 µM.

For the compound `CC(=O)N(c1ccc(F)c(C(=O)c2cn(C(C)=O)c3ncc(-c4ccc5c(cnn5C(C)=O)c4)cc23)c1F)S(=O)(=O)c1cc(F)ccc1F` [P-0006, N-Acetyl-N-{3-[1-acetyl-5-(1-acetyl-1H-indazol-5-yl)-1H-pyrrolo[2,3-b]pyridine-3-carbonyl]-2,4-difluoro-phenyl}-2,5-difluoro-benzenesulfonamide], the half-inhibitory concentration (IC50) in experiment [1] was under 0.1 µM; in experiment [2], under 1 µM.

As for `CCCS(=O)(=O)Nc1ccc(F)c(C(=O)c2c[nH]c3ncc(-c4ccc5c(cnn5C(C)=O)c4)cc23)c1F` [P-0007, propane-1-sulfonic acid {3-[5-(1-acetyl-1H-indazol-5-yl)-1H-pyrrolo[2,3-b]pyridine-3-carbonyl]-2,4-difluoro-phenyl}-amide], the values for the half-maximal inhibitory concentration (IC50) in experiment [1] and in experiment [2] were about 0.1 µM and under 1 µM, respectively.

`CCCS(=O)(=O)Nc1ccc(F)c(C(=O)c2c[nH]c3ncc(-c4ccc5nn(C)cc5c4)cc23)c1F` [P-0010, Propane-1-sulfonic acid {2,4-difluoro-3-[5-(2-methyl-2H-indazol-5-yl)-1H-pyrrolo[2,3-b]pyridine-3-carbonyl]-phenyl}-amide]: the IC50 was under 0.1 µM in experiment [1] and under 1 µM in experiment [2].

Take `CCCS(=O)(=O)Nc1ccc(F)c(C(=O)c2c[nH]c3ncc(-c4ccc5cn(C)nc5c4)cc23)c1F` [P-0011, Propane-1-sulfonic acid {2,4-difluoro-3-[5-(2-methyl-2H-indazol-6-yl)-1H-pyrrolo[2,3-b]pyridine-3-carbonyl]-phenyl}-amide]: the values for the IC50 in experiment [1] and in experiment [2] were under 0.1 µM and under 1 µM, respectively.

On to `CCCS(=O)(=O)Nc1ccc(F)c(C(=O)c2c[nH]c3ncc(-c4ccc5[nH]ccc5c4)cc23)c1F` [P-0012, Propane-1-sulfonic acid {2,4-difluoro-3-[5-(1H-indol-5-yl)-1H-pyrrolo[2,3-b]pyridine-3-carbonyl]-phenyl}-amide], for which the values for the IC50 in experiment [1] and in experiment [2] were under 0.1 µM and under 1 µM, respectively.

Consider `CCCS(=O)(=O)Nc1ccc(F)c(C(=O)c2c[nH]c3ncc(-c4cccc5nn(C)cc45)cc23)c1F` [P-0015, Propane-1-sulfonic acid {2,4-difluoro-3-[5-(2-methyl-2H-indazol-4-yl)-1H-pyrrolo[2,3-b]pyridine-3-carbonyl]-phenyl}-amide], for which the IC50 is under 0.1 µM in experiment [1] and under 1 µM in experiment [2].

Consider `CCCS(=O)(=O)Nc1ccc(F)c(C(=O)c2c[nH]c3ncc(-c4ccc5c(cnn5S(C)(=O)=O)c4)cc23)c1F` [P-0016, propane-1-sulfonic acid {2,4-difluoro-3-[5-(1-methanesulfonyl-1H-indazol-5-yl)-1H-pyrrolo[2,3-b]pyridine-3-carbonyl]-phenyl}-amide], for which the figures for the IC50 in experiment [1] and in experiment [2] were under 0.1 µM and under 1 µM, respectively.

Turning to `CCCS(=O)(=O)Nc1ccc(F)c(C(=O)c2c[nH]c3ncc(-c4ccc5ncsc5c4)cc23)c1F` [P-0020, Propane-1-sulfonic acid [3-(5-benzothiazol-6-yl-1H-pyrrolo[2,3-b]pyridine-3-carbonyl)-2,4-difluoro-phenyl]-amide], the IC50 in experiment [1] is under 0.1 µM; in experiment [2], under 1 µM.

Regarding `CCCS(=O)(=O)Nc1ccc(F)c(C(=O)c2c[nH]c3ncc(-c4ccc5[nH]cc(C)c5c4)cc23)c1F` [P-0023, Propane-1-sulfonic acid {2,4-difluoro-3-[5-(3-methyl-1H-indol-5-yl)-1H-pyrrolo[2,3-b]pyridine-3-carbonyl]-phenyl}-amide], the IC50 in experiment [1] was under 0.1 µM; in experiment [2], under 1 µM.

On to `CCCS(=O)(=O)Nc1ccc(F)c(C(=O)c2c[nH]c3ncc(-c4ccc5cncnc5c4)cc23)c1F` [P-0025, Propane-1-sulfonic acid [2,4-difluoro-3-(5-quinazolin-7-yl-1H-pyrrolo[2,3-b]pyridine-3-carbonyl)-phenyl]-amide], for which the IC50 in experiment [1] was under 0.1 µM; in experiment [2] it was under 1 µM.

Regarding `CCCS(=O)(=O)Nc1ccc(F)c(C(=O)c2c[nH]c3ncc(-c4cnn(C5CCNCC5)c4)cc23)c1F` [P-1002, Propane-1-sulfonic acid {2,4-difluoro-3-[5-(1-piperidin-4-yl-1H-pyrazol-4-yl)-1H-pyrrolo[2,3-b]pyridine-3-carbonyl]-phenyl}-amide], the IC50 in experiment [1] is under 0.1 µM; in experiment [2] it was under 1 µM.

On to `O=C(c1c(F)ccc(NS(=O)(=O)c2ccc(C(F)(F)F)cc2)c1F)c1c[nH]c2ncc(-c3cnn(C4CCNCC4)c3)cc12` [P-1004, N-{2,4-Difluoro-3-[5-(1-piperidin-4-yl-1H-pyrazol-4-yl)-1H-pyrrolo[2,3-b]pyridine-3-carbonyl]-phenyl}-4-trifluoromethyl-benzenesulfonamide], for which the IC50 in experiment [1] is under 0.1 µM; in experiment [2], over 1 µM.

For `CCCS(=O)(=O)Nc1ccc(F)c(C(=O)c2c[nH]c3ncc(-c4csc(-n5ccnc5C)n4)cc23)c1F` [P-1101, Propane-1-sulfonic acid (2,4-difluoro-3-{5-[2-(2-methyl-imidazol-1-yl)-thiazol-4-yl]-1H-pyrrolo[2,3-b]pyridine-3-carbonyl}-phenyl)-amide], the IC50 was under 0.1 µM in experiment [1] and under 1 µM in experiment [2].

Consider `Cc1ccc(-c2cnc3[nH]cc(C(=O)c4c(F)ccc(NS(=O)(=O)c5cc(F)ccc5F)c4F)c3c2)cn1` [P-1408, N-{2,4-Difluoro-3-[5-(6-methyl-pyridin-3-yl)-1H-pyrrolo[2,3-b]pyridine-3-carbonyl]-phenyl}-2,5-difluoro-benzenesulfonamide], for which the IC50 in experiment [1] was under 0.1 µM.

As for `Cc1ncc(-c2cnc3[nH]cc(C(=O)c4c(F)ccc(NS(=O)(=O)c5cc(F)ccc5F)c4F)c3c2)cn1` [P-1503, N-{2,4-Difluoro-3-[5-(2-methyl-pyrimidin-5-yl)-1H-pyrrolo[2,3-b]pyridine-3-carbonyl]-phenyl}-2,5-difluoro-benzenesulfonamide], in experiment [1], the IC50 is under 0.1 µM.
